Measurements from US9783505B2, “Substituted diaminopyrimidyl compounds, compositions thereof, and methods of treatment therewith” (Signal Pharmaceuticals, LLC, priority 2013, dated 2017).
pIC50: −log10 of the molar value.

Experiments:
[1] = target: T1, His-PKC-theta (Homo sapiens, UniProt Q04759); test: PKC-theta Assay (384-well time resolved fluorescence, IMAP TR-FRET); type: biochemical; conditions: read-out: Act. Level (IC50 in the PKC-theta Assay)
T1 construct: His; purchased Invitrogen
Outline: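 Enzyme at 142 pM phosphorylated 200 nM Fam-S6 peptide with 10 μM ATP in 50 mM HEPES pH 7.6, 10 mM MgCl2, 1 mM DTT for 2 h at room temperature. Product was detected after overnight incubation with IMAP binding reagent and Tb donor by time-resolved FRET.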

[2] = target: T2, PKC delta (Homo sapiens, UniProt Q05655); test: PKC delta Assay (384-well time resolved fluorescence, IMAP TR-FRET); type: biochemical; conditions: selectivity for PKC-theta over PKC-delta
T2 construct: purchased Invitrogen
T2 sequence (Q05655 whole entry): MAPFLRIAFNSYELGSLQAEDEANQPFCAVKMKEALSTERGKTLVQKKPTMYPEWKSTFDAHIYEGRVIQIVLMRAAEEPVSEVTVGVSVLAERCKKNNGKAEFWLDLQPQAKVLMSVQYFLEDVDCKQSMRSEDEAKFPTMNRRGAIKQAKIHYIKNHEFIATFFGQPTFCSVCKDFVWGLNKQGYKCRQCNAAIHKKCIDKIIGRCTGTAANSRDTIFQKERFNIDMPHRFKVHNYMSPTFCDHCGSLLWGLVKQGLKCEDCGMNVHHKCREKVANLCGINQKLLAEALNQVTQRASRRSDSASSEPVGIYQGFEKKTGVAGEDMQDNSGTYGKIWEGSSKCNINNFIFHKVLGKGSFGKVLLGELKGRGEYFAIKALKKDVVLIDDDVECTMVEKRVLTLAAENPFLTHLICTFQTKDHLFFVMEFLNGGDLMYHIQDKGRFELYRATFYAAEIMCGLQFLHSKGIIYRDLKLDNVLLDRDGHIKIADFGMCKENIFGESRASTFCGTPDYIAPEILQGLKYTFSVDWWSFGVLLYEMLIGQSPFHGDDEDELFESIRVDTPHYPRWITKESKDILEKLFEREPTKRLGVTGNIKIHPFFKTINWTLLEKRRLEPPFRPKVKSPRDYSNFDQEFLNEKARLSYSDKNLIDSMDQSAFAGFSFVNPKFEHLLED
Description: PKC delta Assay. A 384-well time resolved fluorescence assay was used to monitor PKC delta activity. The PKC delta assay was run in the following assay buffer: 50 mM HEPES pH 7.6, 10 mM MgCl2, 1 mM DTT, 0.01% Triton X-100, 0.01% BSA and 0.1 mM EDTA. To initiate the reaction, 200 nM of Fam-labeled S6-derived peptide (Molecular Devices) and 10 μM of ATP were mixed with 1.5 nM of PKC delta (Invitrogen), for a total assay volume of 25 μL in each well. The assay was incubated at room temperature for 2 hours and terminated using a 60 μL/well mixture of Detection Binding Solution: 70% IMAP Progressive Binding Buffer A, 30% IMAP Progressive Binding Buffer B, 1:600 Progressive Binding Reagent, and 1:400 TR-FRET Tb Donor (Molecular Devices). The assay plates were then incubated overnight at room temperature and read on the Perkin-Elmer Envision Reader.

T1 sequence (Q04759 whole entry): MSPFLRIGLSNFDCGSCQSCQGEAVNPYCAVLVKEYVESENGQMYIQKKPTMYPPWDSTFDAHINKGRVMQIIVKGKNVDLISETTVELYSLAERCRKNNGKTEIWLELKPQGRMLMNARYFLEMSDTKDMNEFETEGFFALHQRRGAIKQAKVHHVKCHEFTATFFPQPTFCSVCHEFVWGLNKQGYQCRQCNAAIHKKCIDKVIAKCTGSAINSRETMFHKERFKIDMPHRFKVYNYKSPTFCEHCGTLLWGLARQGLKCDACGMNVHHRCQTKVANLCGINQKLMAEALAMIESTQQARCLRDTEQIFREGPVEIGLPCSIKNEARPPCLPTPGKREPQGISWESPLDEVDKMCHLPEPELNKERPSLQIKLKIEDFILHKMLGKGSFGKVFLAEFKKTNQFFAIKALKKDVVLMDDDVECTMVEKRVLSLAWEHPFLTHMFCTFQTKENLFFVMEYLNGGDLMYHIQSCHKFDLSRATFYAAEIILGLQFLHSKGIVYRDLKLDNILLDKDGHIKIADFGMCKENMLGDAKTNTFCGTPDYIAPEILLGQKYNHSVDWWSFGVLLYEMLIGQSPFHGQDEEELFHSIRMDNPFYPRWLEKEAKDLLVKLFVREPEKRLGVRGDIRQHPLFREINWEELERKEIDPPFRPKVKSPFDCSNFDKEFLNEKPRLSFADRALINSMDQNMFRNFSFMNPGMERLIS

Structure (SMILES) | pIC50 [1] | Sel. Level (ratio of IC50 PKC-delta/IC50 PKC-theta) [2]
C[C@]1(O)CC2(C[C@H](Nc3nc(NCCC4C(=O)Nc5ccccc54)ncc3C#N)C2)C1 (stereo partly shown) [Cmpd 302] | 5.70 to 6.10 | G (selectivity between 5- and 20-fold (selectivity level G))
CC1(C)[C@H](Nc2nc(NCc3cncnc3OCCC(F)(F)F)ncc2C#N)C[C@]1(C)O [Cmpd 334] | > 7.00 | E (selectivity (Sel. Level=ratio of IC50 PKC-delta/IC50 PKC-theta) of >100-fold (selectivity level E))
CC1(C)[C@H](O)CCC[C@H]1Nc1nc(NCCC2C(=O)Nc3cc(F)ccc32)ncc1C#N (stereo partly shown) [Cmpd 310] | 5.70 to 6.10 | H (selectivity level of 5-fold or less (selectivity level H))
Cc1cccnc1CCNc1ncc(C#N)c(NC2C[C@H](O)C2(C)C)n1 (stereo partly shown) [Cmpd 224] | 5.00 to 5.70 | H (selectivity level of 5-fold or less (selectivity level H))
CC(F)(F)COc1ncncc1CNc1ncc(C#N)c(N[C@@H]2CCC[C@@](C)(O)C2)n1 [Cmpd 286] | 6.10 to 7.00 | F (selectivity of between 20- and 100-fold (selectivity level F))
Cc1ncccc1CCNc1ncc(C#N)c(N[C@@H]2CC[C@H](O)C(C)(C)C2)n1 [Cmpd 258] | 6.10 to 7.00 | F (selectivity of between 20- and 100-fold (selectivity level F))
Cc1cnn(CCNc2ncc(C#N)c(N[C@@H]3CC[C@H](O)C(C)(C)C3)n2)c1 [Cmpd 212] | 5.00 to 5.70 | H (selectivity level of 5-fold or less (selectivity level H))
Cc1cc(C(F)(F)F)nn1CCNc1ncc(C#N)c(N[C@@H]2CC[C@H](O)C(C)(C)C2)n1 [Cmpd 210] | 5.70 to 6.10 | G (selectivity between 5- and 20-fold (selectivity level G))
Cc1nc(CCNc2ncc(C#N)c(N[C@@H]3CC(O)C3(C)C)n2)no1 (stereo partly shown) [Cmpd 233] | 5.00 to 5.70 | H (selectivity level of 5-fold or less (selectivity level H))
Cc1ccc(CCNc2ncc(C#N)c(N[C@@H]3CC(O)C3(C)C)n2)o1 (stereo partly shown) [Cmpd 232] | 6.10 to 7.00 | F (selectivity of between 20- and 100-fold (selectivity level F))
CC1(C)C[C@H](Nc2nc(NCCc3ccc4ccccc4n3)ncc2C#N)CC[C@@H]1O [Cmpd 256] | 5.70 to 6.10 | G (selectivity between 5- and 20-fold (selectivity level G))
CC1(C)C[C@H](Nc2nc(NCCc3c[nH]c4cnccc34)ncc2C#N)CC[C@@H]1O [Cmpd 283] | 6.10 to 7.00 | F (selectivity of between 20- and 100-fold (selectivity level F))
Cc1cccc(CCNc2ncc(C#N)c(N[C@@H]3C[C@H](O)C3(C)C)n2)n1 [Cmpd 262] | 5.00 to 5.70 | H (selectivity level of 5-fold or less (selectivity level H))
Cc1cccnc1CCNc1ncc(C#N)c(N[C@@H]2CC[C@H](O)C(C)(C)C2)n1 [Cmpd 214] | 5.00 to 5.70 | H (selectivity level of 5-fold or less (selectivity level H))
CCOc1cc(CCNc2ncc(C#N)c(N[C@@H]3CC[C@H](O)C(C)(C)C3)n2)ccn1 [Cmpd 330] | 6.10 to 7.00 | G (selectivity between 5- and 20-fold (selectivity level G))
Cc1nccnc1CCNc1ncc(C#N)c(N[C@H]2CC[C@@H](C(N)=O)CC2)n1 [Cmpd 321] | 5.00 to 5.70 | H (selectivity level of 5-fold or less (selectivity level H))
CC1(C)[C@@H](O)C[C@H]1Nc1nc(NCCc2ccn[nH]2)ncc1C#N [Cmpd 245] | 5.70 to 6.10 | G (selectivity between 5- and 20-fold (selectivity level G))
CC1(C)[C@@H](O)C[C@H]1Nc1nc(NCCc2c[nH]c3ccccc23)ncc1C#N [Cmpd 240] | > 7.00 | G (selectivity between 5- and 20-fold (selectivity level G))
CC1(C)C[C@H](Nc2nc(NCCc3cc4ccccc4[nH]3)ncc2C#N)CC[C@@H]1O [Cmpd 200] | 5.70 to 6.10 | G (selectivity between 5- and 20-fold (selectivity level G))
Cc1ccc(CCNc2ncc(C#N)c(N[C@@H]3C[C@H](O)C3(C)C)n2)cn1 [Cmpd 235] | 5.00 to 5.70 | H (selectivity level of 5-fold or less (selectivity level H))
CC1(C)[C@@H](O)C[C@H]1Nc1nc(NCCn2cccc2)ncc1C#N [Cmpd 238] | 6.10 to 7.00 | G (selectivity between 5- and 20-fold (selectivity level G))

Structure (SMILES) | pIC50 [1] | Sel. Level (ratio of IC50 PKC-delta/IC50 PKC-theta) [2]
CC1(C)[C@@H](O)C[C@H]1Nc1nc(NCCc2cc3ccccc3[nH]2)ncc1C#N [Cmpd 237] | 5.70 to 6.10 | G (selectivity between 5- and 20-fold (selectivity level G))
CC1(C)C[C@H](Nc2nc(NCCn3ccc(-c4ccccc4)n3)ncc2C#N)CC[C@@H]1O [Cmpd 209] | 5.00 to 5.70 | H (selectivity level of 5-fold or less (selectivity level H))
CC1(C)[C@@H](O)C[C@H]1Nc1nc(NCCc2cn[nH]c2)ncc1C#N [Cmpd 244] | 6.10 to 7.00 | G (selectivity between 5- and 20-fold (selectivity level G))
N#Cc1cnc(NCCc2c[nH]c3cnccc23)nc1N[C@H]1CC[C@@H](C(N)=O)CC1 [Cmpd 320] | 6.10 to 7.00 | F (selectivity of between 20- and 100-fold (selectivity level F))
CN1C(=O)C(CCNc2ncc(C#N)c(N[C@@H]3C[C@H](C(N)=O)C3(C)C)n2)c2ccccc21 (stereo partly shown) [Cmpd 325] | 6.10 to 7.00 | F (selectivity of between 20- and 100-fold (selectivity level F))
CC1(C)C[C@H](Nc2nc(NCCc3cncnc3)ncc2C#N)CC[C@@H]1O [Cmpd 277] | 5.00 to 5.70 | H (selectivity level of 5-fold or less (selectivity level H))
CC1(C)[C@H](Nc2nc(NCc3cncnc3OCC(F)F)ncc2C#N)C[C@]1(C)O [Cmpd 332] | > 7.00 | E (selectivity (Sel. Level=ratio of IC50 PKC-delta/IC50 PKC-theta) of >100-fold (selectivity level E))
Cc1cccc2c1NC(=O)C2CCNc1ncc(C#N)c(N[C@@H]2CC[C@H](O)C(C)(C)C2)n1 (stereo partly shown) [Cmpd 248] | > 7.00 | F (selectivity of between 20- and 100-fold (selectivity level F))
CC1(C)[C@H](O)CCC[C@@H]1Nc1nc(NCCC2C(=O)Nc3cc(F)ccc32)ncc1C#N (stereo partly shown) [Cmpd 311] | 6.10 to 7.00 | G (selectivity between 5- and 20-fold (selectivity level G))
COc1cccc(CCNc2ncc(C#N)c(N[C@@H]3CC[C@H](O)C(C)(C)C3)n2)n1 [Cmpd 215] | 5.70 to 6.10 | G (selectivity between 5- and 20-fold (selectivity level G))
CC1(C)C[C@H](Nc2nc(NCCn3ccnc3)ncc2C#N)CC[C@@H]1O [Cmpd 221] | 5.00 to 5.70 | H (selectivity level of 5-fold or less (selectivity level H))
CC1(C)C[C@H](Nc2nc(NCCc3ccon3)ncc2C#N)CC[C@@H]1O [Cmpd 220] | 5.70 to 6.10 | G (selectivity between 5- and 20-fold (selectivity level G))
CC1(C)C[C@H](Nc2nc(NCCc3nc4ccccc4o3)ncc2C#N)CC[C@@H]1O [Cmpd 205] | 5.00 to 5.70 | H (selectivity level of 5-fold or less (selectivity level H))
CC(F)(F)COc1ncncc1CNc1ncc(C#N)c(N[C@@H]2C[C@](C)(O)C2(C)C)n1 [Cmpd 333] | > 7.00 | E (selectivity (Sel. Level=ratio of IC50 PKC-delta/IC50 PKC-theta) of >100-fold (selectivity level E))
CCOc1cccc(CCNc2ncc(C#N)c(N[C@@H]3CC[C@H](O)C(C)(C)C3)n2)n1 [Cmpd 257] | 5.70 to 6.10 | G (selectivity between 5- and 20-fold (selectivity level G))
CCc1cccn1CCNc1ncc(C#N)c(N[C@H]2CC[C@@H](C(N)=O)CC2)n1 [Cmpd 323] | 6.10 to 7.00 | G (selectivity between 5- and 20-fold (selectivity level G))
CC1(C)[C@@H](O)C[C@H]1Nc1nc(NCCC2C(=O)Nc3ccccc32)ncc1C#N (stereo partly shown) [Cmpd 259] | > 7.00 | E (selectivity (Sel. Level=ratio of IC50 PKC-delta/IC50 PKC-theta) of >100-fold (selectivity level E))
CC1(C)C[C@H](Nc2nc(NCCc3c[nH]c4ccccc34)ncc2C#N)CC[C@@H]1O [Cmpd 203] | > 7.00 | F (selectivity of between 20- and 100-fold (selectivity level F))
Cc1cccc2c1NC(=O)C2CCNc1ncc(C#N)c(N[C@@H]2C[C@H](O)C2(C)C)n1 (stereo partly shown) [Cmpd 260] | > 7.00 | F (selectivity of between 20- and 100-fold (selectivity level F))
CC1(C)C[C@H](Nc2nc(NCCn3cccc3)ncc2C#N)CC[C@@H]1O [Cmpd 201] | 6.10 to 7.00 | F (selectivity of between 20- and 100-fold (selectivity level F))
